Test results published in ChEMBL document CHEMBL4673209, “Discovery of a novel potent GPR40 full agonist” (Bioorg Med Chem Lett, 2018).
Active and inactive are the calls of the source. The calls are words filed in the database; no cut-off is given here.

Legend:
[1] = system: Rattus norvegicus; assay: Anti-glycemic activity in fasted Sprague-Dawley ZDF rat assessed as increase in insulin secretion by measuring insulin level in plasma administered 30 mins prior to glucose challenge measured after 140 mins by OGTT; assay type: functional, organism-based; details: dose 1-10 mg/kg, time 170.0 min
[2] = system: Rattus norvegicus; assay: Anti-glycemic activity in fasted Sprague-Dawley ZDF rat assessed as reduction in post-prandial hyperglycemia administered 30 mins prior to glucose challenge and measured for 120 mins by OGTT; assay type: functional; details: 2.5 h, time 150 min, read-out: MED
[3] = molecular target: T1, Peroxisome proliferator-activated receptor gamma (Homo sapiens) (UniProt P37231); assay: Agonist activity at PPARgamma (unknown origin); assay type: cell-based; details: HEK293
T1 sequence (whole entry): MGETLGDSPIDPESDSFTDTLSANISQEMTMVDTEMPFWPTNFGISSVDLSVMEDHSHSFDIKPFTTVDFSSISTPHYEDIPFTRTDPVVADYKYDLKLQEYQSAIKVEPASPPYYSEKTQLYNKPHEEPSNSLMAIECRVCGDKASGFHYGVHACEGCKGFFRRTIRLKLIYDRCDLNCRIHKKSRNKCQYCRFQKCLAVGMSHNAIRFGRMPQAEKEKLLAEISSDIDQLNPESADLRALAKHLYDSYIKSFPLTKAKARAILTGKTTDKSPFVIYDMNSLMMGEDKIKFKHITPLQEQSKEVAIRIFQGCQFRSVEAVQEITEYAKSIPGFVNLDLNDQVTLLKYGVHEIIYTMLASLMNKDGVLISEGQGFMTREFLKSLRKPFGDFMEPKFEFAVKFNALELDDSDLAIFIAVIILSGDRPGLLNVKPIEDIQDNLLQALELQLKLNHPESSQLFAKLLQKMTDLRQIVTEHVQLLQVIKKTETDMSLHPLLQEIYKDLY

[4] = system: Mus musculus; assay: In vivo agonist activity at GPR40 in C57 mouse assessed as induction of GLP1 secretion at 100 mg/kg; assay type: functional, organism-based
[5] = system: Rattus norvegicus; assay: Anti-glycemic activity in fasted Sprague-Dawley ZDF rat assessed as reduction in post-prandial hyperglycemia by measuring AUC(0 to 2 hrs) for blood glucose at 10 mg/kg administered daily for 8 days and measured on day 8 by OGTT; assay type: functional; details: time 8 day
[6] = system: Rattus norvegicus; assay: Anti-glycemic activity in fasted Sprague-Dawley ZDF rat assessed as reduction in post-prandial hyperglycemia by measuring AUC(0 to 2 hrs) for blood glucose at 3 mg/kg administered daily for 8 days and measured on day 8 by OGTT; assay type: functional; details: time 8 day
[7] = system: Rattus norvegicus; assay: Anti-glycemic activity in fasted Sprague-Dawley ZDF rat assessed as increase in insulin secretion by measuring insulin level in plasma at 1 mg/kg administered 30 mins prior to glucose challenge measured after 140 mins by OGTT; assay type: functional; details: time 170 min, 2.833 h
[8] = organism: Mus musculus; assay: Anti-glycemic activity in C57 mouse assessed as reduction in blood glucose excursion measured for 120 mins by IPGTT; assay type: functional, organism-based
[9] = molecular target: Free fatty acid receptor 1 (Rattus norvegicus) (UniProt Q8K3T4); assay: Agonist activity at GPR40 receptor in rat INS1(832/13) cells assessed as induction of IP1 accumulation at 10 uM relative to TAK875; assay type: functional, cell-based; details: INS-1 832/13, filed as agonist
Sequence of Free fatty acid receptor 1 (Rattus norvegicus) (Q8K3T4 whole entry): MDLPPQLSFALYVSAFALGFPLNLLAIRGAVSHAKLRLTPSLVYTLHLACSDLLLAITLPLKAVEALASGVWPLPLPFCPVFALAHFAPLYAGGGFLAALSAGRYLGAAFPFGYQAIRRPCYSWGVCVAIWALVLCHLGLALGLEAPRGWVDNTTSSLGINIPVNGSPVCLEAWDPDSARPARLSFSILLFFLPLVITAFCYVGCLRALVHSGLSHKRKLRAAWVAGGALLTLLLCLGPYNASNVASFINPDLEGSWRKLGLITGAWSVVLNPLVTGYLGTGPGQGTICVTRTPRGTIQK

[10] = molecular target: Free fatty acid receptor 1 (Rattus norvegicus, UniProt Q8K3T4); assay: Agonist activity at rat GPR40 receptor expressed in CHOK1 cells assessed as induction of IP1 accumulation; assay type: functional, cell-based, CHO-K1
Sequence of Free fatty acid receptor 1 (Rattus norvegicus, UniProt Q8K3T4) (Q8K3T4 whole entry): as above

[11] = molecular target: Free fatty acid receptor 1 (Rattus norvegicus) (UniProt Q8K3T4); assay: Agonist activity at rat GPR40 receptor expressed in CHOK1 cells assessed as induction of IP1 accumulation at 10 uM relative to AM1638; assay type: functional, cell-based; details: CHO-K1, filed as agonist
[12] = molecular target: Free fatty acid receptor 1 (Rattus norvegicus) (UniProt Q8K3T4); assay: Agonist activity at rat GPR40 receptor expressed in CHOK1 cells assessed as induction of IP1 accumulation at 10 uM; assay type: functional, cell-based; details: CHO-K1, filed as agonist
[13] = molecular target: Free fatty acid receptor 1 (Homo sapiens, UniProt O14842); assay: Agonist activity at human GPR40 receptor expressed in CHOK1 cells assessed as induction of IP1 accumulation at 10 uM; assay type: functional, cell-based; details: CHO-K1, filed as agonist
Sequence of Free fatty acid receptor 1 (Homo sapiens, UniProt O14842) (O14842 whole entry): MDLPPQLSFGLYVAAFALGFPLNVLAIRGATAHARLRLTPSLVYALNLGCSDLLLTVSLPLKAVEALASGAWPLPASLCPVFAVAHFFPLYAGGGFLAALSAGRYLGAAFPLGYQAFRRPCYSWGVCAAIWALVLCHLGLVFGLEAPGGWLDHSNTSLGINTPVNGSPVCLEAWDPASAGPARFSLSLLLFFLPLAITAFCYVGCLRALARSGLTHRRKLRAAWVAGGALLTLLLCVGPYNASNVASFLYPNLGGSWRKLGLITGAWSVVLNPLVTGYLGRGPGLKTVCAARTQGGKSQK

[14] = Volume of distribution at steady state in cynomolgus monkey; assay type: ADME, Macaca fascicularis; details: in vivo, read-out: Vdss
[15] = Clearance in cynomolgus monkey; assay type: ADME, Macaca fascicularis; details: in vivo
[16] = Clearance in rat; assay type: ADME; details: in vivo
[17] = Hepatic clearance in human; assay type: ADME

## COc1cc(-c2ncc(COc3cccc([C@@H](CC(=O)O)C4CC4)c3)nc2CC(C)C)c(F)cn1
[1]
  Activity: Dose-dependent effect
[2]
  minimal effective dose: 3 mg/kg
[3]
  Activity: inactive
[4]
  Activity: Active
[5]
  Activity: 51024 ng/mL.hr
[6]
  Activity: 16769 ng/mL.hr
[7]
  Activity: 1405 ng/mL
[8]
  Activity: Active
[9]
  Activity: 208%
[10]
  EC50: 547 nM
[11]
  Activity: 95%
[12]
  Activity: 572 nM
[13]
  Activity: 1040 nM
[14]
  Vd: 1.06 L/kg
[15]
  clearance: 2.19 mL/min/kg
[16]
  clearance: 2.37 mL/min/kg
[17]
  CLH: 8.9 mL/min/kg
